Results: ChEMBL document CHEMBL1201862, “PubChem BioAssay data set” (2004)
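Grown in 96-well plates, cells were treated for 48 hours with each compound at five concentrations. Insufficient inhibition: endpoint recorded as highest concentration tested. Here, GI50 denotes the concentration required for 50% inhibition of growth.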 Activity calls are given as the source filed them. Cut-off read from the data, not from the text of the source: active = GI50 up to about 1.1 µM and inactive = higher.

Legend:
Assay in all cases: growth of human tumour cells (NCI), 48 h
[1] = system: SF-268
[2] = system: SNB-75
[3] = system: SF-295
[4] = system: SN12C
[5] = system: KM12
[6] = system: HT-29
[7] = system: SF-539
[8] = system: NCI-H460
[9] = system: K562
[10] = system: CCRF-CEM
[11] = system: SK-OV-3
[12] = system: NCI-H226
[13] = system: A549
[14] = system: IGROV-1
[15] = system: UO-31
[16] = system: RXF 393
[17] = system: OVCAR-4
[18] = system: OVCAR-8
[19] = system: HOP-92
[20] = system: HCC 2998

Row | Structure (SMILES) | GI50 [1] | GI50 [2] | GI50 [3] | GI50 [4] | GI50 [5] | GI50 [6] | GI50 [7] | GI50 [8] | GI50 [9] | GI50 [10] | GI50 [11] | GI50 [12] | GI50 [13] | GI50 [14] | GI50 [15] | GI50 [16] | GI50 [17] | GI50 [18] | GI50 [19] | GI50 [20]
1 | Nc1nc(O)c2[nH]cnc2[n+]1[O-] | > 100 µM (inactive) | > 100 µM (inactive) | > 100 µM (inactive) | 40.5 µM (inactive) | > 100 µM (inactive) | > 100 µM (inactive) | > 100 µM (inactive) | > 100 µM (inactive) | > 100 µM (inactive) | > 100 µM (inactive) | > 100 µM (inactive) | > 100 µM (inactive) | > 100 µM (inactive) | > 100 µM (inactive) | > 100 µM (inactive) | > 100 µM (inactive) | > 100 µM (inactive) | > 100 µM (inactive) | > 100 µM (inactive) | 
2 | COc1cccc(C2c3cc4c(cc3OC(N3CCOCC3)C2C)OCO4)c1 (stereo not given) | 16.7 µM (inactive) | 28.3 µM (inactive) | 9.64 µM (inactive) | 24.3 µM (inactive) |  | 4.68 µM (inactive) |  | 14.2 µM (inactive) | 3.1 µM (inactive) |  | 17.9 µM (inactive) | 15.6 µM (inactive) | 12.9 µM (inactive) | 15 µM (inactive) | 12.8 µM (inactive) |  | 14.7 µM (inactive) | 23.4 µM (inactive) | 25.5 µM (inactive) | 
3 | Cc1cc(C)nc(NS(=O)(=O)c2ccc(NC(=O)c3cccc4c(Nc5ccc(S(=O)(=O)Nc6cc(C)on6)cc5)c5ccccc5nc34)cc2)n1 | 19.7 µM (inactive) | 23.3 µM (inactive) |  | 23 µM (inactive) | 16.4 µM (inactive) | 22.2 µM (inactive) | 17.1 µM (inactive) | 25.6 µM (inactive) | 28.7 µM (inactive) | 28.8 µM (inactive) | 27.9 µM (inactive) |  |  |  | 35 µM (inactive) | 20.1 µM (inactive) | 23.2 µM (inactive) |  |  | 14.8 µM (inactive)
4 | CSc1sc(C)cc1-c1nsc(=O)o1 | > 100 µM (inactive) |  | > 100 µM (inactive) | > 100 µM (inactive) | > 100 µM (inactive) | > 100 µM (inactive) |  | > 100 µM (inactive) | > 100 µM (inactive) | > 100 µM (inactive) |  |  | > 100 µM (inactive) | > 100 µM (inactive) | > 100 µM (inactive) | > 100 µM (inactive) | > 100 µM (inactive) |  | > 100 µM (inactive) | > 100 µM (inactive)
5 | COc1ccc2c(c1)OC(c1ccccc1O)CC2=O (stereo not given) | 29.2 µM (inactive) | 30.9 µM (inactive) | 45.7 µM (inactive) | 41.5 µM (inactive) | 27.5 µM (inactive) | 74.6 µM (inactive) | 45.9 µM (inactive) | 50.1 µM (inactive) | 28.3 µM (inactive) | 30.5 µM (inactive) |  |  | 40.6 µM (inactive) |  | 18.1 µM (inactive) |  | 47.3 µM (inactive) | 47.6 µM (inactive) |  | 48.9 µM (inactive)
6 | C=CCCON(C(=O)OC(C)(C)C)c1ccccc1 | > 100 µM (inactive) | 82.6 µM (inactive) | > 100 µM (inactive) | > 100 µM (inactive) | > 100 µM (inactive) | 47.9 µM (inactive) | > 100 µM (inactive) | > 100 µM (inactive) | > 100 µM (inactive) | 12.2 µM (inactive) | > 100 µM (inactive) | > 100 µM (inactive) | > 100 µM (inactive) | > 100 µM (inactive) | > 100 µM (inactive) | > 100 µM (inactive) |  | > 100 µM (inactive) | > 100 µM (inactive) | 
7 | COc1ccc(NC(=O)C(=O)NNC(=O)c2sc(NNC(C)=O)nc2C)c([N+](=O)[O-])c1 | 51.8 µM (inactive) |  | > 100 µM (inactive) | > 100 µM (inactive) | > 100 µM (inactive) | > 100 µM (inactive) | > 100 µM (inactive) | > 100 µM (inactive) | 37.1 µM (inactive) | 24.2 µM (inactive) | > 100 µM (inactive) | > 100 µM (inactive) | > 100 µM (inactive) | > 10 µM (inactive) | > 100 µM (inactive) |  | 51.5 µM (inactive) | > 100 µM (inactive) | > 100 µM (inactive) | > 100 µM (inactive)
8 | CCc1ncc(C(C)(O)c2ccccc2)n1Cc1ccccc1 (stereo not given) | 99.8 µM (inactive) | 48.6 µM (inactive) | > 100 µM (inactive) | 21.7 µM (inactive) | 31 µM (inactive) | 31.8 µM (inactive) | 37.2 µM (inactive) | 54.7 µM (inactive) | 33.4 µM (inactive) | 48.9 µM (inactive) | 67.6 µM (inactive) | 21.5 µM (inactive) | 35.5 µM (inactive) | 42.4 µM (inactive) | 55.1 µM (inactive) | > 100 µM (inactive) | 35.8 µM (inactive) | 36.1 µM (inactive) | 67.3 µM (inactive) | 
9 | COc1cc2c(cc1OC)C1(COc3cc(O)c(O)c(O)c3C1=O)C2 (stereo not given) | > 50 µM (inactive) | 8.65 µM (inactive) | 25.9 µM (inactive) | > 50 µM (inactive) | > 50 µM (inactive) | > 50 µM (inactive) | > 50 µM (inactive) | > 50 µM (inactive) | > 50 µM (inactive) | > 50 µM (inactive) | > 50 µM (inactive) | > 50 µM (inactive) | > 50 µM (inactive) | > 50 µM (inactive) | > 50 µM (inactive) | > 50 µM (inactive) | > 50 µM (inactive) | > 50 µM (inactive) |  | 
10 | CC(O)(P(=O)(O)O)P(=O)(O)OCC(O)CN1CCOCC1 (stereo not given) | > 100 µM (inactive) |  | > 100 µM (inactive) |  | > 100 µM (inactive) | > 100 µM (inactive) | 95.1 µM (inactive) | > 100 µM (inactive) | > 100 µM (inactive) | > 100 µM (inactive) | > 100 µM (inactive) | > 100 µM (inactive) | > 100 µM (inactive) | > 100 µM (inactive) | > 100 µM (inactive) | > 100 µM (inactive) |  | > 100 µM (inactive) | > 100 µM (inactive) | > 100 µM (inactive)
11 | CCOC(=O)Cc1cc(OC)c(OC)cc1/C(Cl)=C(\CO)c1ccc(OC)c(OC)c1 |  | 23.8 µM (inactive) | 39.8 µM (inactive) | > 100 µM (inactive) |  | > 100 µM (inactive) |  | > 100 µM (inactive) | > 100 µM (inactive) | > 100 µM (inactive) | > 100 µM (inactive) |  | > 100 µM (inactive) | > 100 µM (inactive) | 80.5 µM (inactive) | 37.9 µM (inactive) | 44.4 µM (inactive) | > 100 µM (inactive) | 25.2 µM (inactive) | 
12 | CN(C)CCCNC(=S)S | > 100 µM (inactive) |  | > 100 µM (inactive) | > 100 µM (inactive) | > 100 µM (inactive) | > 100 µM (inactive) | > 100 µM (inactive) | > 100 µM (inactive) | > 100 µM (inactive) | > 100 µM (inactive) | > 100 µM (inactive) | > 100 µM (inactive) | > 100 µM (inactive) | > 100 µM (inactive) |  | > 100 µM (inactive) | > 100 µM (inactive) | > 100 µM (inactive) | > 100 µM (inactive) | 
13 | Nc1ncnc2c1ncn2C1C(O)C=C(CO)C1O (stereo not given) | > 625 µM (inactive) |  | > 625 µM (inactive) | > 625 µM (inactive) | > 625 µM (inactive) | > 625 µM (inactive) | > 625 µM (inactive) | > 625 µM (inactive) |  |  | > 625 µM (inactive) | > 625 µM (inactive) | > 625 µM (inactive) | > 625 µM (inactive) | > 625 µM (inactive) |  | > 625 µM (inactive) | > 625 µM (inactive) | 568 µM (inactive) | > 625 µM (inactive)
14 | OC1(c2ccc(Cl)cc2)c2ccc3ccccc3c2C2=N[C@H]3CCCC[C@@H]3N21 (stereo not given in full) | 9.02 µM (inactive) |  | 3.64 µM (inactive) | 38.5 µM (inactive) | 5.16 µM (inactive) |  | 5.71 µM (inactive) | 13.3 µM (inactive) | 13.2 µM (inactive) | 21.7 µM (inactive) | 14 µM (inactive) | 43.8 µM (inactive) | 10 µM (inactive) | 13.5 µM (inactive) | 5.73 µM (inactive) | 3.5 µM (inactive) | > 100 µM (inactive) | 1.55 µM (inactive) | 16.9 µM (inactive) | 
15 | O=c1c2cc(I)ccc2nc(-c2cccs2)n1O | 38.4 µM (inactive) |  | 31.1 µM (inactive) | 45 µM (inactive) | 32.6 µM (inactive) | 48.6 µM (inactive) | 44.6 µM (inactive) | 36.6 µM (inactive) | 48.3 µM (inactive) | 27.7 µM (inactive) |  | 52.6 µM (inactive) | 22.6 µM (inactive) | 30.5 µM (inactive) | 49 µM (inactive) | > 100 µM (inactive) | 31.6 µM (inactive) | 38.1 µM (inactive) | 28.1 µM (inactive) | 30 µM (inactive)
16 | S=C=NCCc1ccccc1 [PHENETHYLISOTHIOCYANATE] | 1.06 µM (active) | 2.65 µM (inactive) | 1.57 µM (inactive) | 0.319 µM (active) | 0.239 µM (active) | 0.219 µM (active) | 0.207 µM (active) | 0.0973 µM (active) | 0.226 µM (active) | 0.186 µM (active) | 1.72 µM (inactive) | 1.49 µM (inactive) | 2.39 µM (inactive) | 0.435 µM (active) | 1.59 µM (inactive) | 0.443 µM (active) | 2.14 µM (inactive) | 1.33 µM (inactive) |  | 0.412 µM (active)
